Data: patent publication US12097202B2 (Kadmon Corporation, LLC, priority 2022, dated 2024)

What was measured:
[1] = target: T1, OATP1B1 (Homo sapiens, UniProt Q9Y6L6); test: In vitro transporter study, OATP1B1; format: in vitro ADME; conditions: at clinically relevant concentrations
T1 sequence (Q9Y6L6 1-691): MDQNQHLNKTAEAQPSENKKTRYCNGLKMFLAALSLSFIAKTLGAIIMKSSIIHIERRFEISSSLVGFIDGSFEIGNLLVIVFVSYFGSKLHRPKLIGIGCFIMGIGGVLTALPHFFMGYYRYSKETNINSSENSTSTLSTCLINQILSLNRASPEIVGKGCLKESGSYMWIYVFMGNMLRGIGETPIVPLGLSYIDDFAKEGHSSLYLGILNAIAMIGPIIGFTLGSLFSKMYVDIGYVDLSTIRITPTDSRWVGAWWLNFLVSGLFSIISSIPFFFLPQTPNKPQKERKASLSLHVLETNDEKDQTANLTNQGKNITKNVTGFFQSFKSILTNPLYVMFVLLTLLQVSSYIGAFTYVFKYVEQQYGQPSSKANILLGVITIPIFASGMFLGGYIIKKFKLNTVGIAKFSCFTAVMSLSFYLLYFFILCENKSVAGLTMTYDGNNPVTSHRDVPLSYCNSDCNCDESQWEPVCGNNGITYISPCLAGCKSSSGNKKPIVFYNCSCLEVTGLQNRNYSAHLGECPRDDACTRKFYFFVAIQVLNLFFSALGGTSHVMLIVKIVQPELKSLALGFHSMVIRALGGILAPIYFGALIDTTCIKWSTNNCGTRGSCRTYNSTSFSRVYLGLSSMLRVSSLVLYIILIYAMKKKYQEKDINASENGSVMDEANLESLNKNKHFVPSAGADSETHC

[2] = tested on: pregnant rabbits; conditions: female, rabbit, in vivo, po
[3] = tested on: pregnant rats; test: Embryo-fetal development studies in rats; format: in vivo, rat; conditions: oral, organogenesis, pilot study
Method: In the pilot study, maternal toxicity and embryo-fetal developmental effects were observed. Maternal toxicity (reduced body weight gain) occurred at 150 and 300 mg/kg/day doses. Increased post-implantation loss occurred at 50 and 300 mg/kg/day.

[4] = target: CYP2C19 (Homo sapiens, UniProt P33261); test: In vitro enzyme inhibition, CYP2C19; format: in vitro ADME
[5] = Clinical drug interaction studies, effects of other drugs on belumosudil in healthy subjects; format: in vivo, human
[6] = target: CYP3A4 (Homo sapiens, UniProt P08684); test: In vitro metabolism by CYP3A4; format: in vitro ADME
Chain of CYP3A4 (P08684 whole entry): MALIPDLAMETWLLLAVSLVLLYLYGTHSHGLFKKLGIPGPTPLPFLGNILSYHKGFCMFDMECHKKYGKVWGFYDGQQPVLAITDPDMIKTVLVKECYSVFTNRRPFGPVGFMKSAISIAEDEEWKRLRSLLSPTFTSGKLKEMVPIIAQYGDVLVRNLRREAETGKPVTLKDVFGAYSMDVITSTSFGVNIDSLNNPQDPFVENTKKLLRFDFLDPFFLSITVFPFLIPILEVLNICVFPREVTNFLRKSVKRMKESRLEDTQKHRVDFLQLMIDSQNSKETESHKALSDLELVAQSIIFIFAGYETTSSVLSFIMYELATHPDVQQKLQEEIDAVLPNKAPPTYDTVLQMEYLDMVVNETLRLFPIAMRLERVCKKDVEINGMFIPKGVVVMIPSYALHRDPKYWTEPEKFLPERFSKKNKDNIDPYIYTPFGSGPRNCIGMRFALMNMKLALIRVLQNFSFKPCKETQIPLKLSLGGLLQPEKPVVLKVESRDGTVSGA

Chain of CYP2C19 (P33261 whole entry): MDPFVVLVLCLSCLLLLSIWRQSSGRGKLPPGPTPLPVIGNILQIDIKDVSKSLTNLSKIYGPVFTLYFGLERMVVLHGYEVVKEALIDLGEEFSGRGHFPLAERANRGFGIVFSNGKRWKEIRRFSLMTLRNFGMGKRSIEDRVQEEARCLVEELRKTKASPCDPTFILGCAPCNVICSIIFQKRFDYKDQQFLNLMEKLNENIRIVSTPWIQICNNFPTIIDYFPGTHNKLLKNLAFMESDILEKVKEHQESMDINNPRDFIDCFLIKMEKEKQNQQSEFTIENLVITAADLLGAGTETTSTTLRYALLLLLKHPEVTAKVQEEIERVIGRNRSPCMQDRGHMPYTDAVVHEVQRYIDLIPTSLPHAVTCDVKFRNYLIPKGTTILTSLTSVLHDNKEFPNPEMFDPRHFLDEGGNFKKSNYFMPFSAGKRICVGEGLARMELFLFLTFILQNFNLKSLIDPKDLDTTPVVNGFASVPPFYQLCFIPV

CC(C)NC(=O)COc1cccc(-c2nc(Nc3ccc4[nH]ncc4c3)c3ccccc3n2)c1 [belumosudil, 2-{3-[4-(1H-indazol-5-ylamino)-2-quinazolinyl]phenoxy}-N-(propan-2-yl) acetamide]
inhibition of OATP1B1 [1]: inhibits | doses at which embryo-fetal effects were observed [2]: ≥ 50 mg/kg/day | doses at which maternal toxicity (body weight loss and mortality) was observed [2]: ≥ 125 mg/kg/day | doses at which fetal malformations were observed [3]: ≥ 50 mg/kg/day | inhibition of CYP2C19 [4]: inhibitor | decrease of belumosudil AUC with omeprazole [5]: 47% | decrease of belumosudil AUC with rabeprazole [5]: 80% | decrease of belumosudil AUC with rifampin [5]: 72% | decrease of belumosudil Cmax with omeprazole [5]: 68% | decrease of belumosudil Cmax with rabeprazole [5]: 87% | decrease of belumosudil Cmax with rifampin [5]: 59% | effect of itraconazole (strong CYP3A inhibitor) on belumosudil exposure [5]: no clinically meaningful effect | metabolism by CYP3A4 [6]: primarily metabolized
